Experimental data: PMC12223310, “Mining the heparinome for cryptic antimicrobial peptides that selectively kill Gram-negative bacteria” (Molecular Systems Biology, 2025)
Values after ≈ are worked out from the molar mass of the structure shown. Where two headings read alike, the source gives them in different places. Ends that are not written are not given here.

Legend:
[1] = tested on: Pseudomonas sp (Pseudomonas aeruginosa); assay type: cell-based, Pseudomonas aeruginosa ATCC 15915
Procedure: (§1) Antimicrobial activities were determined by the microtiter broth dilution method recommended by the National Committee of Laboratory Safety and Standards (NCLSS), adapted for AMPs (Wiegand et al, [2008]). Briefly, overnight bacterial cell cultures were brought to an exponential growth state (OD600 = 0.4) in MH broth and diluted to a final concentration of 5 × 10^5 CFU/mL. In all, 1:2 peptide serial dilutions were prepared in 96-well polypropylene plates (Greiner, Frickenhausen, Germany), in MH medium containing 0.2% (w/v) of bovine serum albumin (BSA) and 0.02% glacial acetic acid. […] The lowest concentration with no colonies was taken as MBC. The results are the average of three independent studies.

Staphylococcus aureus = assay type: cell-based, Staphylococcus aureus ATCC 12600
Procedure: as §1

Escherichia coli = assay type: cell-based, Escherichia coli BW25113
Procedure: as §1

Listeria monocytogenes = assay type: cell-based, Listeria monocytogenes ATCC 19112
Procedure: as §1

Acinetobacter baumannii = assay type: cell-based, Acinetobacter baumannii ATCC 15308
Procedure: as §1

Enterococcus faecium = assay type: cell-based, Enterococcus faecium ATCC 19434
Procedure: as §1

Cytotoxicity, MTT assay = assay type: cell-based; conditions: human, HepG2 cells, 4 h peptide incubation in MEMα, average of three studies, read-out: LC50 (HepG2 cells)
Procedure: (§2) Toxicity in MRC-5 and HepG2 cells was tested by the MTT assay, as described (Bello-Madruga et al, [2023]). Cell lines were maintained in Eagle’s minimum essential medium (MEMα) supplemented with 10% fetal bovine serum (FBS). Cells were cultured in 75-cm^2 flasks and then transferred to polystyrene 96-well plates, at 3 × 10^4 cells per well, and incubated overnight for attachment to the well surface. Then culture media was removed and 1:2 peptide serial dilutions in MEMα were added to each well and later incubated for 4 h. After incubation, peptides were removed and 100 μL of 0.5 mg/mL MTT staining solution in MEMα supplemented with 10% FBS was added to cells and incubated for 1.5 h at 37 °C. Formazan crystals in living cells were detected after disruption with 200 μL dimethyl sulfoxide and then absorbance was measured at 570 nm in a Tecan Spark instrument (Tecan, Männedorf, Switzerland). The results are the average of three independent studies.

E. coli CFT073 = assay type: cell-based
Procedure: as §1

P. aeruginosa 827651 = assay type: cell-based
Procedure: as §1

P. aeruginosa 827632 = assay type: cell-based
Procedure: as §1

A. baumannii 3880 = assay type: cell-based
Procedure: as §1

E. coli 1166795 = assay type: cell-based
Procedure: as §1

A. baumannii 3878 = assay type: cell-based
Procedure: as §1

in vitro = assay type: cell-based; conditions: human, MRC-5 cells
Procedure: as §2

Compound | MIC Pseudomonas sp [1] [µM] | MIC S. aureus (Staphylococcus aureus) | MIC E. coli (Escherichia coli) [µM] | MIC L. monocytogenes (Listeria monocytogenes) [µM] | MIC A. baumannii (Acinetobacter baumannii) [µM] | MBC Pseudomonas sp [1] [µM] | MBC E. faecium (Enterococcus faecium) | MIC E. faecium (Enterococcus faecium) | MBC S. aureus (Staphylococcus aureus) | MBC E. coli (Escherichia coli) [µM] | MBC L. monocytogenes (Listeria monocytogenes) [µM] | MBC A. baumannii (Acinetobacter baumannii) [µM] | CC50 at 4 h (Cytotoxicity, MTT assay) [µM] | MBC E. coli CFT073 (E. coli CFT073) [µM] | MIC E. coli CFT073 (E. coli CFT073) [µM] | MBC P. aeruginosa 827651 (P. aeruginosa 827651) [µM] | MIC P. aeruginosa 827651 (P. aeruginosa 827651) [µM] | MBC P. aeruginosa 827632 (P. aeruginosa 827632) [µM] | MIC P. aeruginosa 827632 (P. aeruginosa 827632) [µM] | MBC A. baumannii 3880 (A. baumannii 3880) [µM] | also measured
HNLFRKLTHQLFRRNFGYTLRSV-NH2 [Peptide R10] | 0.8 | 6.3 µM | 0.4 | 1.6 | 0.4 | – | – | – | – | – | – | – | – | – | – | – | – | – | – | – | –
HNLFRKLTAALFRANFGYTLRSV-NH2 [ΔCPC’] | 1.6 | 6.3 µM | 1.6 | 3.1 | 1.6 | – | – | – | – | – | – | – | – | – | – | – | – | – | – | – | –
HNLFRKLTHRLFRQNFGYTLRSV-NH2 [Peptide R14] | 0.4 | 6.3 µM | 0.4 | 3.1 | 0.4 | – | – | – | – | – | – | – | – | – | – | – | – | – | – | – | –
GWKDKKSYRWFLQHRPQVGYIRVRFY-NH2 [HBP-4] | 0.8 | 3.1 µM | 0.2 | 1.6 | 0.8 | 0.8 | 50 µM | 12.5 µM | 12.5 µM | 0.2 | 3.1 | 0.8 | 38 | 1.6 | 0.8 | 6.3 | 3.1 | 6.3 | 6.3 | 1.6 | MIC A. baumannii 3880 (A. baumannii 3880): 1.6 µM; MBC E. coli 1166795 (E. coli 1166795): < 0.1 µM; MIC E. coli 1166795 (E. coli 1166795): < 0.1 µM; MBC A. baumannii 3878 (A. baumannii 3878): 0.8 µM; MIC A. baumannii 3878 (A. baumannii 3878): 0.8 µM; CC50 at 4 h (in vitro): 35 µM
RWHLTHRPKTGYIRVLVH-NH2 [HBP-1] | 3.1 | 50 µM | 1.6 | 6.3 | 1.6 | 3.1 | ≥100/ > 100 µM | ≥100/ > 100 µM | > 100 µM | 1.6 | 12.5 | 1.6 | > 200 | 3.1 | 3.1 | 50 | 25 | 25 | 25 | 12.5 | MIC A. baumannii 3880 (A. baumannii 3880): 12.5 µM; MBC E. coli 1166795 (E. coli 1166795): 1.6 µM; MIC E. coli 1166795 (E. coli 1166795): 1.6 µM; MBC A. baumannii 3878 (A. baumannii 3878): 1.6 µM; MIC A. baumannii 3878 (A. baumannii 3878): 1.6 µM; CC50 at 4 h (in vitro): > 200 µM
CC[C@H](C)[C@H](NC(=O)[C@H](CCCCN)NC(=O)[C@H](CCC(=O)O)NC(=O)[C@H](CCCCN)NC(=O)[C@H](CO)NC(=O)[C@H](CCCCN)NC(=O)[C@H](CCCNC(=N)N)NC(=O)[C@H](Cc1ccccc1)NC(=O)[C@H](Cc1ccccc1)NC(=O)[C@H](CC(=O)O)NC(=O)CNC(=O)[C@H](CC(C)C)NC(=O)[C@@H](N)CC(C)C)C(=O)NCC(=O)N[C@@H](CCCCN)C(=O)N[C@@H](CCC(=O)O)C(=O)N[C@@H](Cc1ccccc1)C(=O)N[C@@H](CCCCN)C(=O)N[C@@H](CCCNC(=N)N)C(=O)N[C@H](C(=O)N[C@H](C(=O)N[C@@H](CCC(N)=O)C(=O)N[C@@H](CCCNC(=N)N)C(=O)N[C@H](C(=O)N[C@@H](CCCCN)C(=O)N[C@@H](CC(=O)O)C(=O)N[C@@H](Cc1ccccc1)C(=O)N[C@@H](CC(C)C)C(=O)N[C@@H](CCCNC(=N)N)C(=O)N[C@@H](CC(N)=O)C(=O)N[C@@H](CC(C)C)C(=O)N[C@H](C(=O)N1CCC[C@H]1C(=O)N[C@@H](CCCNC(=N)N)C(=O)N[C@H](C(=O)N[C@@H](CCC(=O)O)C(=O)N[C@@H](CO)C(N)=O)[C@@H](C)O)C(C)C)[C@@H](C)CC)C(C)C)[C@@H](C)CC [LL-37, reference compound] | 0.8 (≈ 3.59 µg/mL) | 25 µM (≈ 112 µg/mL) | – | 0.8 (≈ 3.59 µg/mL) | 6.3 (≈ 28.3 µg/mL) | 0.8 (≈ 3.59 µg/mL) | 3.1 µM (≈ 13.9 µg/mL) | 0.8 µM (≈ 3.59 µg/mL) | 25 µM (≈ 112 µg/mL) | – | 3.1 (≈ 13.9 µg/mL) | 6.3 (≈ 28.3 µg/mL) | 53 | – | – | – | – | – | – | – | MBC E. coli (Escherichia coli; MIC wells plated on LB agar, overnight 37 °C, no colonies, average of three studies): 3.1 µM (≈ 13.9 µg/mL); MIC E. coli (Escherichia coli; microtiter broth dilution, MH broth, 5 × 10^5 CFU/mL, overnight 37 °C, average of three studies): 1.6 µM (≈ 7.19 µg/mL); CC50 at 4 h (in vitro; MTT, 4 h peptide incubation in MEMα, average of three studies, read-out: LC50 (MRC-5 cells)): 26 µM
RFYLSKKKWVMVP-NH2 [HBP-2] | 25 | >100/ > 100 µM | 12.5 | 37.5 | 50 | 50 | >100/ > 100 µM | >100/ > 100 µM | >100/ > 100 µM | 25 | > 100 | 50 | > 200 | 100 | 50 | > 100 | > 100 | > 100 | > 100 | > 50 | MIC A. baumannii 3880 (A. baumannii 3880): > 50 µM; MBC E. coli 1166795 (E. coli 1166795): 12.5 µM; MIC E. coli 1166795 (E. coli 1166795): 12.5 µM; MBC A. baumannii 3878 (A. baumannii 3878): 50 µM; MIC A. baumannii 3878 (A. baumannii 3878): 50 µM; CC50 at 4 h (in vitro): > 200 µM
FRFKRKLPKYLLF-NH2 [HBP-3] | 6.3 | 25 µM | 3.1 | 6.3 | 0.8 | 6.3 | >100/ > 100 µM | >100/ > 100 µM | 50 µM | 3.1 | 12.5 | 0.8 | > 200 | 25 | 12.5 | 12.5 | 12.5 | 25 | 25 | 6.3 | MIC A. baumannii 3880 (A. baumannii 3880): 6.3 µM; MBC E. coli 1166795 (E. coli 1166795): 1.6 µM; MIC E. coli 1166795 (E. coli 1166795): 1.6 µM; MBC A. baumannii 3878 (A. baumannii 3878): 6.3 µM; MIC A. baumannii 3878 (A. baumannii 3878): 6.3 µM; CC50 at 4 h (in vitro): > 200 µM
